Measurements published in PubChem BioAssay AID248 (DTP/NCI, 2004).
Values joined by “and” are separate entries in the source; they are usually repeats but may differ in a detail not shown here. Identical values can stand only once. Toxic doses and inconclusive results are not listed.

Tested on: L1210 leukemia ip in BDF1 mice, survival T/C
Assay: NCI In Vivo Anticancer Drug Screen. Data for tumor model L1210 Leukemia (intraperitoneal) in B6D2F1 (BDF1) mice
Conditions: endpoint: mean survival time, higher = longer survival
How it was run: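 Transplantable tumor model; survival measured in treated vs vehicle control mice. Value = treated/control.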

[1] = dose: 100.0 mg/kg/injection, schedule: Q04DX002 (ip), vehicle: Klucel (hydroxypropylcellulose) (HPC)
[2] = dose: 200.0 mg/kg/injection, schedule: Q04DX002 (ip), vehicle: Klucel (hydroxypropylcellulose) (HPC)
[3] = dose: 400.0 mg/kg/injection, schedule: Q04DX002 (ip), vehicle: Klucel (hydroxypropylcellulose) (HPC)
[4] = dose: 100.0 mg/kg/injection, schedule: Q04DX003 (ip), vehicle: Klucel (hydroxypropylcellulose) (HPC)
[5] = dose: 200.0 mg/kg/injection, schedule: Q04DX003 (ip), vehicle: Klucel (hydroxypropylcellulose) (HPC)
[6] = dose: 400.0 mg/kg/injection, schedule: Q04DX003 (ip), vehicle: Klucel (hydroxypropylcellulose) (HPC)
[7] = dose: 100.0 mg/kg/injection, schedule: Q04DX002 (ip), vehicle: saline with Tween-80
[8] = dose: 200.0 mg/kg/injection, schedule: Q04DX002 (ip), vehicle: saline with Tween-80
[9] = dose: 400.0 mg/kg/injection, schedule: Q04DX002 (ip), vehicle: saline with Tween-80
[10] = dose: 100.0 mg/kg/injection, schedule: Q04DX003 (ip), vehicle: saline
[11] = dose: 200.0 mg/kg/injection, schedule: Q04DX003 (ip), vehicle: saline
[12] = dose: 50.0 mg/kg/injection, schedule: Q01DX009 (ip), vehicle: saline with Tween-80
[13] = dose: 100.0 mg/kg/injection, schedule: Q01DX009 (ip), vehicle: saline with Tween-80
[14] = dose: 100.0 mg/kg/injection, schedule: Q01DX001 (ip), vehicle: saline
[15] = dose: 200.0 mg/kg/injection, schedule: Q01DX001 (ip), vehicle: saline
[16] = dose: 400.0 mg/kg/injection, schedule: Q01DX001 (ip), vehicle: saline
[17] = dose: 100.0 mg/kg/injection, schedule: Q01DX001 (ip), vehicle: carboxymethylcellulose (CMC)
[18] = dose: 200.0 mg/kg/injection, schedule: Q01DX001 (ip), vehicle: carboxymethylcellulose (CMC)

In the case of `CN(C)C(=S)SC(=S)N(C)C`, the T/C (dose: 25.0 mg/kg/injection, schedule: Q04DX002 (ip), vehicle: Klucel (hydroxypropylcellulose) (HPC)) is reported as 106 % of control, the T/C (dose: 50.0 mg/kg/injection, schedule: Q04DX002 (ip), vehicle: Klucel (hydroxypropylcellulose) (HPC)) is reported as 100 % of control and the T/C [1] is reported as 89 % of control. The T/C [2] was 91 % of control and the T/C [3] was 98 % of control.
For `S=C(Nc1ccc(Cl)cc1)Nc1ccc(-c2ccc(NC(=S)Nc3ccc(Cl)cc3)cc2)cc1`, the T/C [1] was 107 % of control, the T/C [2] was 100 % of control and the T/C [3] was 89 % of control.
For `Cc1ccc(NCC(O)CN2CCN(CC(O)CNc3ccc(C)cc3)CC2)cc1` (stereo unspecified), the T/C (dose: 100.0 mg/kg/injection, schedule: Q01DX001 (ip), vehicle: other) was 106 % of control, the T/C [4] was 88 % of control and the T/C (dose: 200.0 mg/kg/injection, schedule: Q01DX001 (ip), vehicle: other) was 95 % of control. The T/C [5] was 94 % of control, the T/C (dose: 400.0 mg/kg/injection, schedule: Q01DX001 (ip), vehicle: other) was 95 % of control and the T/C [6] was 91 % of control.
For `CCCC(CC)C(C(=O)OCC)C1=NC(C)(C)CC(C)O1` (stereo unspecified), the T/C (dose: 100.0 mg/kg/injection, schedule: Q01DX009 (ip), vehicle: saline sonified) was 98 % of control, the T/C (dose: 200.0 mg/kg/injection, schedule: Q01DX009 (ip), vehicle: saline sonified) was 104 % of control and the T/C (dose: 400.0 mg/kg/injection, schedule: Q01DX009 (ip), vehicle: saline sonified) was 93 % of control.
In the case of `C=CCOC(=O)Nc1cccc(O)c1`, the T/C [7] is reported as 106 % of control, the T/C [8] is reported as 110 % of control and the T/C [9] is reported as 103 % of control.
For `O=S(=O)(c1ccc(Br)cc1)C(F)(F)F`, the T/C [7] was 101 % of control, the T/C [8] was 101 % of control and the T/C [9] was 86 % of control.
With `Nc1ccc(-c2ccc3ccccc3n2)cc1` the T/C (dose: 12.0 mg/kg/injection, schedule: Q01DX009 (ip), vehicle: Klucel (hydroxypropylcellulose) (HPC)) was 92 % of control, the T/C (dose: 25.0 mg/kg/injection, schedule: Q01DX009 (ip), vehicle: Klucel (hydroxypropylcellulose) (HPC)) was 94 % of control and the T/C [4] was 112 % of control. The T/C [5] was 103 % of control.
`CC(Cc1ccccc1)N(C)N` (stereo unspecified) was tested, and the T/C (dose: 1.56 mg/kg/injection, schedule: Q01DX009 (ip), vehicle: saline) was 94 % of control, the T/C (dose: 3.12 mg/kg/injection, schedule: Q01DX009 (ip), vehicle: saline) was 102 % of control and the T/C (dose: 6.25 mg/kg/injection, schedule: Q01DX009 (ip), vehicle: saline) was 91 % of control. For the same molecule, the T/C (dose: 12.5 mg/kg/injection, schedule: Q01DX009 (ip), vehicle: saline) was 88 % of control and the T/C (dose: 25.0 mg/kg/injection, schedule: Q01DX009 (ip), vehicle: saline) was 102 % of control.
With `NN1CCCCCC1` the T/C [10] was 102 % of control, the T/C [11] was 97 % of control and the T/C (dose: 400.0 mg/kg/injection, schedule: Q04DX003 (ip), vehicle: saline) was 94 % of control.
`C(=Nc1ccc(-c2ccccc2)cc1)c1ccccc1` was tested, and the T/C (dose: 25.0 mg/kg/injection, schedule: Q01DX009 (ip), vehicle: saline with Tween-80) was 105 % of control, the T/C [12] was 97 % of control and the T/C [13] was 92 % of control.
In the case of `c1ccc(-c2nnnn2-c2ccccc2)cc1`, the T/C (dose: 100.0 mg/kg/injection, schedule: Q01DX001 (ip), vehicle: saline with Tween-80) is reported as 102 % of control, the T/C (dose: 200.0 mg/kg/injection, schedule: Q01DX001 (ip), vehicle: saline with Tween-80) is reported as 98 % of control and the T/C (dose: 400.0 mg/kg/injection, schedule: Q01DX001 (ip), vehicle: saline with Tween-80) is reported as 105 % of control.
`CC1(O)CCC2C3CCC4CC(=O)CCC4(C)C3(F)C(O)CC21C` (stereo unspecified) was tested, and the T/C (dose: 100.0 mg/kg/injection, schedule: Q01DX009 (ip), vehicle: saline) was 96 % of control, the T/C (dose: 200.0 mg/kg/injection, schedule: Q01DX009 (ip), vehicle: saline) was 102 % of control and the T/C (dose: 400.0 mg/kg/injection, schedule: Q01DX009 (ip), vehicle: saline) was 96 % of control.
With `CCCCC/C(=N/N)c1ccc2cc3c(cc2c1)CCCC3` the T/C [14] was 97 % of control, the T/C [15] was 95 % of control and the T/C [16] was 90 % of control.
`COC(=O)c1ccccc1N=NNc1ccccc1-c1nc(N)nc(N)n1` was tested, and the T/C (dose: 100.0 mg/kg/injection, schedule: Q01DX009 (ip), vehicle: Klucel (hydroxypropylcellulose) (HPC)) was 95 % of control, the T/C [4] was 103 % of control and the T/C (dose: 200.0 mg/kg/injection, schedule: Q01DX009 (ip), vehicle: Klucel (hydroxypropylcellulose) (HPC)) was 104 % of control. The T/C [5] was 106 % of control, the T/C (dose: 400.0 mg/kg/injection, schedule: Q01DX009 (ip), vehicle: Klucel (hydroxypropylcellulose) (HPC)) was 98 % of control and the T/C [6] was 95 % of control.
In the case of `NC1CCC(Cl)CC1` (stereo unspecified), the T/C [14] is reported as 95 % of control, the T/C [10] is reported as 99 % of control and the T/C [15] is reported as 106 % of control. The T/C [11] was 99 % of control and the T/C [16] was 92 % of control.
With `Oc1ccc(-c2nc3ccccc3s2)cc1` the T/C (dose: 100.0 mg/kg/injection, schedule: Q01DX001 (ip), vehicle: Klucel (hydroxypropylcellulose) (HPC)) was 105 % of control, the T/C (dose: 200.0 mg/kg/injection, schedule: Q01DX001 (ip), vehicle: Klucel (hydroxypropylcellulose) (HPC)) was 113 % of control and the T/C (dose: 400.0 mg/kg/injection, schedule: Q01DX001 (ip), vehicle: Klucel (hydroxypropylcellulose) (HPC)) was 111 % of control.
In the case of `CC(=O)Nc1cc2c(cc1[N+](=O)[O-])-c1ccccc1/C2=N\O`, the T/C [17] is reported as 106 % of control, the T/C [18] is reported as 94 % of control and the T/C (dose: 400.0 mg/kg/injection, schedule: Q01DX001 (ip), vehicle: carboxymethylcellulose (CMC)) is reported as 111 % of control.
With `CCCN([Si](C)(C)C)[Si](C)(C)C` the T/C [12] was 100 % of control, the T/C [13] was 94 % of control and the T/C (dose: 100.0 mg/kg/injection, schedule: Q04DX003 (ip), vehicle: saline with Tween-80) was 99 % of control. The T/C (dose: 200.0 mg/kg/injection, schedule: Q01DX009 (ip), vehicle: saline with Tween-80) was 100 % of control and the T/C (dose: 200.0 mg/kg/injection, schedule: Q04DX003 (ip), vehicle: saline with Tween-80) was 106 % of control.
`O=NN(CCCl)C(=O)Nc1ccc2c(c1)OCO2` was tested, and the T/C (dose: 4.0 mg/kg/injection, schedule: Q01DX009 (ip), vehicle: other) was 155 % of control, the T/C (dose: 6.0 mg/kg/injection, schedule: Q01DX009 (ip), vehicle: other) was 163 % of control and the T/C (dose: 9.0 mg/kg/injection, schedule: Q01DX009 (ip), vehicle: other) was 170 % of control. For the same molecule, the T/C (dose: 13.0 mg/kg/injection, schedule: Q01DX009 (ip), vehicle: other) was 173 % of control, the T/C (dose: 20.0 mg/kg/injection, schedule: Q01DX001 (ip), vehicle: other) was 180 % of control and the T/C (dose: 20.0 mg/kg/injection, schedule: Q01DX009 (ip), vehicle: other) was 164 % of control. For the same molecule, the T/C (dose: 22.0 mg/kg/injection, schedule: Q01DX009 (ip), vehicle: carboxymethylcellulose (CMC)) was 157 % of control, the T/C (dose: 30.0 mg/kg/injection, schedule: Q01DX001 (ip), vehicle: other) was 170 % of control and the T/C (dose: 30.0 mg/kg/injection, schedule: Q01DX009 (ip), vehicle: other) was 166 % of control and 185 % of control. For the same molecule, the T/C (dose: 44.0 mg/kg/injection, schedule: Q01DX009 (ip), vehicle: other) was 104 % of control, the T/C (dose: 66.0 mg/kg/injection, schedule: Q01DX001 (ip), vehicle: other) was 226 % of control and the T/C (dose: 88.0 mg/kg/injection, schedule: Q01DX001 (ip), vehicle: saline) was 151 % of control. For the same molecule, the T/C [17] was 151 % of control and the T/C [18] was 160 % of control.
For `Cc1cccc(Cl)c1NC(=O)C(C)C`, the T/C (dose: 100.0 mg/kg/injection, schedule: Q01DX009 (ip), vehicle: other) was 101 % of control, the T/C (dose: 200.0 mg/kg/injection, schedule: Q01DX009 (ip), vehicle: other) was 104 % of control and the T/C (dose: 400.0 mg/kg/injection, schedule: Q01DX009 (ip), vehicle: other) was 98 % of control.
